Data reported in ChEMBL document CHEMBL3045962, “Synthesis and antitumor evaluation of some novel pyrrolizine derivatives” (Med Chem Res, 2012).

Tested on: MCF7
Assay: Cytotoxicity against Homo sapiens (human) MCF7 cells after 48 hr by neutral red assay
Type: functional, cell-based

SMILES | IC50 [µM]
CCOC=NC1C(C#N)=C2CCCN2C1(O)N1CCOCC1 (stereo not drawn) | 41
CC(=O)CC(=O)NC1C(C#N)=C2CCCN2C1(O)N1CCOCC1 (stereo not drawn) | 22
NC1=NC=NC2C1=C1CCCN1C2(O)N1CCOCC1 (stereo not drawn) | 35
CC(=O)NC1=NC=NC2C1=C1CCCN1C2(O)N1CCOCC1 (stereo not drawn) | 29
N#CC1=C2CCCN2C(O)(N2CCOCC2)C1NC(=O)c1ccccc1 (stereo not drawn) | 34
N#CC1=C2CCCN2C(O)(N2CCOCC2)C1/N=C/c1ccc([N+](=O)[O-])cc1 (stereo not drawn) | 19
CCOC(=O)NC1=NC=NC2C1=C1CCCN1C2(O)N1CCOCC1 (stereo not drawn) | 25
CC(=O)C/C(C)=N/C1C(C#N)=C2CCCN2C1(O)N1CCOCC1 (stereo not drawn) | 42
COc1ccc(/C=N/C2C(C#N)=C3CCCN3C2(O)N2CCOCC2)cc1 (stereo not drawn) | 16
O=C1NC=NC2C1=C1CCCN1C2(O)N1CCOCC1 (stereo not drawn) | 30
N#CC1=C2CCCN2C(O)(N2CCOCC2)C1NC(=O)CCl (stereo not drawn) | 23
N#CC1=C2CCCN2C(O)(N2CCOCC2)C1/N=C/N (stereo not drawn) | 26
N#CC1=C2CCCN2C(O)(N2CCOCC2)C1/N=C/c1ccc(Cl)cc1 (stereo not drawn) | 45
N#CC1=C2CCCN2C(O)(N2CCOCC2)C1N (stereo not drawn) | 35
CC(=O)C1=C(N)C2=C3CCCN3C(O)(N3CCOCC3)C2NC1=O (stereo not drawn) | 29
N#CC1=C2CCCN2C(O)(N2CCOCC2)C1/N=C/NNC(=O)c1ccncc1 (stereo not drawn) | 29
CC1=NC2C(=C3CCCN3C2(O)N2CCOCC2)C(=O)N1 (stereo not drawn) | 36
CN(C)c1ccc(/C=N/C2C(C#N)=C3CCCN3C2(O)N2CCOCC2)cc1 (stereo not drawn) | 37
COc1ccc(C2SCC(=O)N2C2C(C#N)=C3CCCN3C2(O)N2CCOCC2)cc1 (stereo not drawn) | 35

SMILES | IC50 [µM]
CCN1C(=N)C2=C3CCCN3C(O)(N3CCOCC3)C2NC1=S (stereo not drawn) | 34
O=C(NC1=NC=NC2C1=C1CCCN1C2(O)N1CCOCC1)c1ccccc1 (stereo not drawn) | 21
N=C1C2=C3CCCN3C(O)(N3CCOCC3)C2NC(=O)N1c1ccc(Cl)cc1 (stereo not drawn) | 37
O=C1NC(NNC(=O)c2ccccc2)=NC2C1=C1CCCN1C2(O)N1CCOCC1 (stereo not drawn) | 19
N=C1C2=C3CCCN3C(O)(N3CCOCC3)C2NC(=O)N1c1ccccc1 (stereo not drawn) | 18
N#CC1=C2CCCN2C(O)(N2CCOCC2)C1NC(=O)Nc1ccccc1 (stereo not drawn) | 44
O=C(CCl)NC1=NC=NC2C1=C1CCCN1C2(O)N1CCOCC1 (stereo not drawn) | 23
N#CC1=C2CCCN2C(O)(N2CCOCC2)C1N1C(=O)CSC1c1ccc(Cl)cc1 (stereo not drawn) | 18
CCNC(=S)NC1C(C#N)=C2CCCN2C1(O)N1CCOCC1 (stereo not drawn) | 37
O=C1NC(c2ccccc2)=NC2C1=C1CCCN1C2(O)N1CCOCC1 (stereo not drawn) | 16
N#CC1=C2CCCN2C(O)(N2CCOCC2)C1/N=C/NNC(=O)c1ccccc1 (stereo not drawn) | 18
O=C1NC(NNC(=O)c2ccncc2)=NC2C1=C1CCCN1C2(O)N1CCOCC1 (stereo not drawn) | 20
CN(C)c1ccc(C2SCC(=O)N2C2C(C#N)=C3CCCN3C2(O)N2CCOCC2)cc1 (stereo not drawn) | 19
CC(=O)C1=C(N)C2=C3CCCN3C(O)(N3CCOCC3)C2N=C1C (stereo not drawn) | 38
COc1cccc2c1C(=O)c1c(O)c3c(c(O)c1C2=O)C[C@@](O)(C(=O)CO)C[C@@H]3O[C@H]1C[C@H](N)[C@H](O)[C@H](C)O1 [DOXORUBICIN] | 63
CC(=O)NC1C(C#N)=C2CCCN2C1(O)N1CCOCC1 (stereo not drawn) | 29
C/C(CC(=O)c1ccccc1)=N\C1C(C#N)=C2CCCN2C1(O)N1CCOCC1 (stereo not drawn) | 28
N#CC1=C2CCCN2C(O)(N2CCOCC2)C1N1C(=O)CSC1c1ccc([N+](=O)[O-])cc1 (stereo not drawn) | 55
CCOC(=O)NC1C(C#N)=C2CCCN2C1(O)N1CCOCC1 (stereo not drawn) | 27
